Results: patent US11008325B2, “Inhibitors of cancer invasion, attachment, and/or metastasis” (VIRGINIA COMMONWEALTH UNIVERSITY, priority 2016, dated 2021)

What was measured:
[1] = test system: ARCaPM-Luc cells; assay: ARCaPM-Luc experimental metastasis model, PDZ1i treatment; assay type: in vivo, athymic nude mice; details: 30 mg/kg body weight I.P.
Method: FIG. 19A-19F. PDZ1i suppresses prostate cancer metastasis and tumor progression. FIG. 19A) Survival data for athymic nude mice in which DMSO or PDZ1i pre-treated ARCaPM cells were injected. FIG. 19B) Survival data for athymic nude mice which were injected with (n=5, each group) ARCaPM-Luc (1×10^6 cells in 100 μl saline) through an intracardiac route. Mice received either vehicle or PDZ1i every alternative day (9 injections during the first three months) and maintained until they needed to be euthanized. FIG. 19C) Survival data for C57BL/6 mice injected through the intracardiac route with RM1-Luc. Vehicle or PDZ1i was administered through intraperitoneal injection every alternate day (total 3 injections during the first week). Survival curves were generated using 6 control vehicle-treated and 5 PDZ1i-treated. Kaplan—Meier survival curves were prepared using Graph Pad software. […] Graphical representation of the average prostate weights from control and treated groups. FIG. 19E and FIG. 19F) Photomicrographs representing the histological changes in prostate sections obtained from 6-month old Hi-Myc mice receiving either vehicle (FIG. 19E) or PDZ1i (FIG. 19F).
To evaluate potential therapeutic efficacy of PDZ1i four sets of in vivo experiments were conducted. […]

[2] = test system: Im-PHFA cells overexpressing MDA-9/Syntenin; assay: trans-well Matrigel invasion assay; assay type: cell-based, human; details: after MDA-9/Syntenin overexpression
Method: (§1) FIGS. 7A-7B. FIG. 7A. Im-PHFA, primary immortal human fetal astrocyte cells were infected with an MDA-9/Syntenin expression plasmid carrying adenovirus. 48 hrs post-infection both the control and MDA-9/Syntenin overexpressing cells were treated with DMSO or PDZ1i followed by seeding in a trans-well Matrigel invasion assay and stained after 24 hrs. FIG. 7B. T98G and U87 were treated with DMSO or PDZ1i and seeding in a trans-well Matrigel invasion assay and stained after 24 hrs. Invasion was quantified from 4 random fields. Data represents fold changes and average±S.D.
(§2) Invasion was measured using 24-well BioCoat cell culture inserts (BD Biosciences, Bedford, Mass.) with an 8-μm-porosity polyethylene terephthalate membrane coated with Matrigel Basement Membrane Matrix (100 μg/cm^2). Briefly, the Matrigel was allowed to rehydrate for 2 h at room temperature by adding warm, serum-free DMEM. The wells of the lower chamber were filled with medium containing 10% fetal bovine serum. […] Cells remaining on the upper surface of the filters were removed by wiping with a cotton swab, and invasion was determined by counting the cells that migrated to the lower side of the filter using at least 5 fields per insert at 100× magnification. […] Data from triplicate experiments were expressed as mean±95% confidence interval (CI).

[3] = test system: T98G cells; assay: trans-well Matrigel invasion assay; assay type: cell-based, human; details: PDZ1i versus DMSO
Method: as §1, §2

## Cc1cc(NC(=O)c2nc3[nH]c4c(c(=O)n3n2)CCC4)c(C)cc1NC(=O)CCc1nnc(-c2ccccc2)o1 [113B7, N-(2,5-dimethyl-4-(3-(5-phenyl-1,3,4-oxadiazol-2-yl)propanamido)phenyl)-8-oxo-5,6,7,8-tetrahydro-4H-cyclopenta[d][1,2,4]triazolo[1,5-a]pyrimidine-2-carboxamide]
[1]
  metastatic lesions by BLI: significantly fewer lesions
  survival: prolonged survival
[2]
  MDA-9/Syntenin-induced invasion: effective in inhibiting MDA-9/Syntenin-induced invasion
[3]
  invasion: effectively inhibited invasion
